Our source for the IC50 values is patent publication US5273991A, “Imidazole-containing compositions and methods of use thereof analogs of distamycin” (Research Corporation Technologies, Inc., priority 1992, dated 1993).

Some test systems named below: RPMI-8226; SK-MEL-28; OVCAR-5; SK-MEL-2; CCRF-CEM; SN12C; A498; SNB-75; 1GROV1; OVCAR-8; UACC-257; UACC-62.
Holding throughout (experiment): NCI cytotoxicity screen (SRB)
What all share (format): cell-based, human

The subject of a further assay is CCRF-DEM. Conditions: 48 h; Leukemia CCRF-DEM.
The test system of the next assay is HOP-18. Conditions: subsequent test date.
[1] abbreviates: SK-MEL-28, subsequent test date.

In the case of `CN(C)CCNC(=O)c1nc(NC(=O)c2nc(NC(=O)c3nc(NC(=O)CCCc4ccc(N(CCCl)CCCl)cc4)cn3C)cn2C)cn1C` [Compound 10, N-(N',N'-dimethylaminoethyl)-1-methyl-4-{1-methyl-4-[4-(4,4-bis(2-chloroethyl)aminophenyl-1-butanamido)-1-methylimidazole-2-carboxamido]imidazole-2-carboxamido}imidazole-2-carboxamide], the IC50 (in general, the midpoint of a concentration-inhibition curve) with RPMI-8226 (48 h, Leukemia RPMI-8226) is 9.5 µM; in the assay with CCRF-DEM, 9.67 µM.
`CN(C)CCNC(=O)c1nc(NC(=O)c2nc(NC(=O)c3nc(NC(=O)c4ccc(N(CCCl)CCCl)cc4)cn3C)cn2C)cn1C` [Compound 7, N-(N',N'-dimethylaminoethyl)-1-methyl-4-{1-methyl-4-[4-(4,4-bis-(2-chloroethyl)aminobenzamido)-1-methylimidazole-2-carboxamido]imidazole-2-carboxamido}imidazole-2-carboxamide]: the IC50 was determined as 0.91 µM with SK-MEL-28 (48 h, Melanoma SK-MEL-28); 0.64 µM in the assay with SK-MEL-28 (setting [1]); 6.13 µM in the assay with OVCAR-5 (48 h, Ovarian Cancer OVCAR-5); 5.24 µM in the assay with OVCAR-5 (OVCAR-5, subsequent test date); 0.65 µM in the assay with SK-MEL-2 (48 h, Melanoma SK-MEL-2); 1.52 µM with CCRF-CEM (48 h, Leukemia CCRF-CEM). Moreover, the IC50 in the assay with SN12C (SN12C, subsequent test date) amounted to 0.61 µM; with A498 (48 h, Renal Cancer A498), 7.76 µM; in the assay on SNB-75 (48 h, CNS Cancer SNB-75), 0.61 µM.
Turning to `CN(C)CCNC(=O)c1nc(NC(=O)c2nc(NC(=O)c3ccc(N(CCCl)CCCl)cc3)cn2C)cn1C` [Compound 6, N-(N',N'-dimethylaminoethyl)-1-methyl-4-{4-[4,4-bis(2-chloroethyl)aminobenzamido]-1-methylimidazole-2-carboxamido}imidazole-2-carboxamide], the IC50 with 1GROV1 (1GROV1, subsequent test date) is 59.6 µM; in the assay on 1GROV1 (48 h, Ovarian Cancer 1GROV1), 50 µM; in the assay with SK-MEL-28 (48 h, Melanoma SK-MEL-28), 5.69 µM; in the assay on SK-MEL-28 (setting [1]), 5.78 µM; in the assay on OVCAR-5 (48 h, Ovarian Cancer OVCAR-5), 45.7 µM; in the assay with OVCAR-5 (OVCAR-5, subsequent test date), 51.3 µM. Further, the IC50 stood at 10.2 µM with HOP-18; 7.17 µM with SK-MEL-2 (48 h, Melanoma SK-MEL-2); 5.85 µM with SK-MEL-2 (SK-MEL-2, subsequent test date); 10.9 µM in the assay with CCRF-CEM (48 h, Leukemia CCRF-CEM); 40.3 µM in the assay with CCRF-CEM (CCRF-CEM, subsequent test date); 30.5 µM in the assay with RPMI-8226 (48 h, Leukemia RPMI-8226). The half-maximal inhibitory concentration (IC50) in the assay with RPMI-8226 (RPMI-8226, subsequent test date) came out at 39.4 µM; in the assay with OVCAR-8 (48 h, Ovarian Cancer OVCAR-8), 45.3 µM; with OVCAR-8 (OVCAR-8, subsequent test date) it was 20.8 µM; with UACC-257 (48 h, Melanoma UACC-257), 7.03 µM; in the assay on UACC-257 (UACC-257, subsequent test date), 57.6 µM; in the assay on SN12C (48 h, Renal Cancer SN12C), 15.6 µM. In addition, the IC50 with SN12C (SN12C, subsequent test date) amounted to 39.9 µM; in the assay on UACC-62 (48 h, Melanoma UACC-62), 7.61 µM; in the assay on UACC-62 (UACC-62, subsequent test date), 59.7 µM; in the assay on A498 (48 h, Renal Cancer A498), 40.6 µM; in the assay on A498 (A498, subsequent test date), 66 µM; in the assay on SNB-75 (48 h, CNS Cancer SNB-75) it was 41 µM. 41.7 µM corresponded to half-maximal inhibition in the assay with SNB-75 (SNB-75, subsequent test date) (IC50).
